In paper PMC10967427, “Polylactic Glycolic Acid-Mediated Delivery of Plectasin Derivative NZ2114 in Staphylococcus epidermidis Biofilms” (Antibiotics, 2024):

Test system: S. epidermidis G4 biofilm persister
Assay: Effect on biofilm persisters, colony counting
Type: cell-based, Staphylococcus epidermidis
Conditions: vancomycin 100× MIC, 24 h, induction of persisters
Description: The antibacterial effect of NZ2114 nanoparticles on the persistent bacteria in the biofilm was determined according to the previous study.

## CN[C@H](CC(C)C)C(=O)N[C@H]1C(=O)N[C@@H](CC(N)=O)C(=O)N[C@H]2C(=O)N[C@H]3C(=O)N[C@H](C(=O)N[C@H](C(=O)O)c4cc(O)cc(O)c4-c4cc3ccc4O)[C@H](O)c3ccc(c(Cl)c3)Oc3cc2cc(c3O[C@@H]2O[C@H](CO)[C@@H](O)[C@H](O)[C@H]2O[C@H]2C[C@](C)(N)[C@H](O)[C@H](C)O2)Oc2ccc(cc2Cl)[C@H]1O [vancomycin]
  Number of viable bacteria in the biofilm after vancomycin: 5.3 × 10^6 CFU/mL
